Consider 2 compounds from publication PMC10005332, “It Takes Two to Tango, Part II: Synthesis of A-Ring Functionalised Quinones Containing Two Redox-Active Centres with Antitumour Activities” (Molecules, 2023).

Like-named read-outs stand apart in the source and are kept apart here.

Series [1] concerns HCT-116 (human colorectal carcinoma). In words: MTT cytotoxicity assay, HCT-116. The format is cell-based. An outline of the steps:
(§1)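 Colorimetric MTT readout, 72 h treatment, triplicate wells, doxorubicin reference. Non-tumoral mouse fibroblast L929 served for selectivity index calculation.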
For orientation: Tetrazolium assays rely on reduction of a dye to a coloured formazan, in cell work by metabolically active cells.

Series [2] concerns PC3 (human prostate adenocarcinoma). In words: MTT cytotoxicity assay, PC3. It counts as cell-based. An outline of the steps:
as §1

Series [3] deals with SNB-19 (human astrocytoma). In words: MTT cytotoxicity assay, SNB-19. The format is cell-based. An outline of the steps:
as §1

Series [4] concerns K-562 (human chronic myeloid leukaemia). In words: MTT cytotoxicity assay, K-562. The format is cell-based. To be noted: for IC50: Homo sapiens, K562, MTT, 72 h exposure, three independent experiments, read-out: Cytotoxic activity IC50 (95% CI) K-562; for Selectivity index K-562: ratio of cytotoxicity L929 / K-562. A digest of the protocol: as §1
The subject of series [5] is HL60 (human pro-myelocytic leukaemia). Briefly: MTT cytotoxicity assay, HL60. It counts as cell-based. The note with it: for IC50: MTT, 72 h exposure, three independent experiments, read-out: Cytotoxic activity IC50 (95% CI) HL60. An outline of the steps:
as §1

The test system of a further series is B16 (murine melanoma). Briefly: MTT cytotoxicity assay, B16. The format is cell-based. To be noted: for IC50: Mus musculus, MTT, 72 h exposure, three independent experiments, read-out: Cytotoxic activity IC50 (95% CI) B16; for Selectivity index B16: ratio of cytotoxicity L929 / B16. An outline of the steps: as §1
The test system of series [6] is A549 (human lung carcinoma). In words: MTT cytotoxicity assay, A549. It counts as cell-based. To be noted: for IC50: Homo sapiens, A549, MTT, 72 h exposure, three independent experiments, read-out: Cytotoxic activity IC50 (95% CI) A549; for Selectivity index A549: ratio of cytotoxicity L929 / A549. A digest of the protocol: as §1
Series [7] deals with KG1 (human acute myeloid leukaemia). Briefly: MTT cytotoxicity assay, KG1. The note with it: for IC50: Homo sapiens, MTT, 72 h exposure, three independent experiments, read-out: Cytotoxic activity IC50 (95% CI) KG1; for Selectivity index KG1: ratio of cytotoxicity L929 / KG1. It counts as cell-based. A digest of the protocol:
as §1

Series [8] relates to RAJI (human Burkitt’s lymphoma). In words: MTT cytotoxicity assay, RAJI. The note with it: for IC50: Homo sapiens, Raji, 72 h, MTT, 72 h exposure, three independent experiments, read-out: Cytotoxic activity IC50 (95% CI) RAJI; for Selectivity index RAJI: ratio of cytotoxicity L929 / RAJI. It counts as cell-based. A digest of the protocol: as §1
Series [9] can be described thus: MTT cytotoxicity assay, L929 control line. It counts as cell-based, mouse. The note with it: mouse, L929 fibroblast cells (non-tumoral control line), 72 h exposure, read-out: Cytotoxic activity IC50 (95% CI) L929. A digest of the protocol:
as §1

Series [10] relates to L929 cells (non-tumoral mouse fibroblast). In words: MTT cytotoxicity assay, L929 control line. The format is cell-based. To be noted: 72 h exposure, read-out: Cytotoxic activity IC50 (95% CI) L929. A digest of the protocol: as §1
Series [11] has as its system HCT-116 (human colorectal carcinoma). The arrangement: method as in PMID 34778772. To be noted: ratio L929 / HCT-116; * data previously described; cited from earlier work.
The test system of series [12] is PC3 (human prostate adenocarcinoma). The arrangement: method as in PMID 34778772. The note with it: ratio L929 / PC3; * data previously described; cited from earlier work.
Series [13] concerns SNB-19 (human astrocytoma). The arrangement: method as in PMID 34778772. The note with it: ratio L929 / SNB-19; * data previously described; cited from earlier work.
Series [14] has as its system HL60 (human pro-myelocytic leukaemia). The arrangement: method as in PMID 34778772. To be noted: ratio L929 / HL60; * data previously described; cited from earlier work.

The term IC50 denotes the point on the concentration scale where inhibition reaches its midpoint. On to `O=C1C(=O)c2ccccc2C2=C1CC(Cn1cc(CNC3=CC(=O)c4cc5ccccc5cc4C3=O)nn1)O2` (centres unmarked) [Compound 20e, 2-((4-(((1,4-dioxo-1,4-dihydroanthracen-2-yl)amino)methyl)-1H-1,2,3-triazol-1-yl)methyl)-2,3-dihydronaphtho[1,2-b]furan-4,5-dione], for which the IC50 in series [1] (Homo sapiens, HCT-116, 72 h, MTT, 72 h exposure, three independent experiments, read-out: Cytotoxic activity IC50 (95% CI) HCT-116) is 7.2 µM; in series [2] (Homo sapiens, MTT, 72 h exposure, three independent experiments, read-out: Cytotoxic activity IC50 (95% CI) PC3), 17.6 µM; in series [3] (Homo sapiens, SNB-19, MTT, 72 h exposure, three independent experiments, read-out: Cytotoxic activity IC50 (95% CI) SNB-19), 7.87 µM; in [4], 7.58 µM; in series [5] (Homo sapiens, HL-60, 72 h), 1.6 µM; in series [5] it was 1.57 µM. Also, the half-maximal inhibitory concentration (IC50) worked out at 9.57 µM in the series on B16 (murine melanoma); 12.7 µM in [6]; 37 µM in series [7]; 5.26 µM in [8]; 15.9 µM in [10]. Besides, the “Selectivity index HCT-116” value in series [1] (ratio of cytotoxicity L929 / HCT-116) is listed as 2.2. In addition, the “Selectivity index PC3” value in series [2] (ratio of cytotoxicity L929 / PC3) was 0.9. For the same compound, the “Selectivity index SNB-19” value in series [3] (ratio of cytotoxicity L929 / SNB-19) turned out to be 2.0. Moreover, the “Selectivity index K-562” value in [4] was 2.1. Besides, the “Selectivity index HL60” value in [5] (ratio of cytotoxicity L929 / HL60) amounted to 10.1. Moreover, the “Selectivity index B16” value with B16 (murine melanoma) is given as 1.7. Besides, the “Selectivity index A549” value in series [6] stood at 1.3. The “Selectivity index KG1” value in series [7] turned out to be 0.4. For the same compound, the “Selectivity index RAJI” value in [8] is given as 3.0. The IC50 at 72 h in [9] is 15.9 µM.

As for `COc1cccc2c1C(=O)c1c(O)c3c(c(O)c1C2=O)C[C@@](O)(C(=O)CO)C[C@@H]3O[C@H]1C[C@H](N)[C@H](O)[C@H](C)O1` [DOXO, doxorubicin, reference compound], in series [4], the IC50 stood at 0.91 µM and the “Selectivity index K-562” value is 1.9. Also, in the series on B16 (murine melanoma), the half-maximal inhibitory concentration (IC50) stood at 0.06 µM and the “Selectivity index B16” value came to 30.2. Besides, in [6], the IC50 was found to be 0.57 µM and the “Selectivity index A549” value is given as 3.0. Besides, in [7], the IC50 turned out to be 0.38 µM and the “Selectivity index KG1” value is given as 4.5. Also, in [8], the IC50 was found to be 2.33 µM and the “Selectivity index RAJI” value amounted to 0.7. In addition, the “Selectivity index HCT-116” value in series [11] was 8.2 *. For the same compound, the “Selectivity index PC3” value in series [12] was 2.3 *. In addition, in series [13], the “Selectivity index SNB-19” value is listed as 1.4 *. The “Selectivity index HL60” value in series [14] is 86.0 *.
